In patent US20150118229A1, “JAK1 SELECTIVE INHIBITOR AND USES THEREOF” (ABBVIE INC., priority 2013, published 2015):
Where “and” joins values, the source holds several entries; their conditions need not be identical. Equal values may be shown once. Read-outs that look alike come from different tables or passages of the source.

What was measured:
CYP2D6 = CYP2D6 (Homo sapiens, UniProt P10635); test: Metabolism by recombinant CYP2D6; format: in vitro ADME; design: from tissue; host or cells: human liver microsomes
Sequence of CYP2D6 (P10635 whole entry): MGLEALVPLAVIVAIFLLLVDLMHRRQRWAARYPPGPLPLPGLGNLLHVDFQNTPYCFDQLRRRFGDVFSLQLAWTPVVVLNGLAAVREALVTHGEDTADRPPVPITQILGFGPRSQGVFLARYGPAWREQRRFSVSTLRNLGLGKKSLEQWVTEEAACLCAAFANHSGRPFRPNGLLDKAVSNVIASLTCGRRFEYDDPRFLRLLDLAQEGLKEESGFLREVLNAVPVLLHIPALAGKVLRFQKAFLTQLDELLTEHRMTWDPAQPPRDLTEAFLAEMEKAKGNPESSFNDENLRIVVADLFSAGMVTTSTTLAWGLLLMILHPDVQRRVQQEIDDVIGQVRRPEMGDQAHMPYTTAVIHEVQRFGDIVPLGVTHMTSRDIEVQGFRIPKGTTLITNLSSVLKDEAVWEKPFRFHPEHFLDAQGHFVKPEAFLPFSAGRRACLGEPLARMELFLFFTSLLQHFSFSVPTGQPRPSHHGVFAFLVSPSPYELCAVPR
Source text: (§1) In vitro biotransformation of Compound 1 primarily occurred at imidazolpyrrolopyrazinyl ethyl pyrrolidine moiety.

CYP3A4 = test: CYP induction (mRNA) in human hepatocytes, CYP3A4; format: in vitro ADME; details: 1, 3, and 10 μM
[1] = In vitro metabolism of [14C]Compound 1 in liver cytosol and hepatocytes; format: in vitro ADME, rat, dog, monkey, and human
Source text: as §1

all other CYPs = test: Metabolism by all other recombinant CYPs; format: in vitro ADME
[2] = rat, in vivo
Description: (§3) The 4-week rat study was conducted at dose levels of 0, 10, 50, 100, and 200 mg/kg/day by daily oral administration (gavage). […] The cause of death was not determined for animals that died.

[3] = Pivotal 4-week GLP oral toxicity study in dogs; format: in vivo, beagle dogs
Source text: (§2) The GLP-compliant studies each included 4 weeks of oral dosing followed by a 4-week recovery period in both rats and dogs followed by GLP-compliant chronic toxicity studies in rats (6 months of oral dosing) and dogs (9 months of oral dosing).

[4] = 9-month (39 weeks) GLP chronic oral toxicity study in dogs; details: both sexes, beagle, in vivo, dog, 9 months (39 weeks)
Description: as §2
A subsequent GLP-compliant 9-month chronic dog study was conducted in beagle dogs at dosages of 0, 0.1, 0.5, and 1.5 mg/kg/day by daily oral capsule administration. No Compound 1-related changes in food consumption or body weights were observed during the dosing period.

MATE1 = MATE1 (Homo sapiens, UniProt Q96FL8); test: Transporter inhibition, MATE1
Sequence of MATE1 (Q96FL8 whole entry): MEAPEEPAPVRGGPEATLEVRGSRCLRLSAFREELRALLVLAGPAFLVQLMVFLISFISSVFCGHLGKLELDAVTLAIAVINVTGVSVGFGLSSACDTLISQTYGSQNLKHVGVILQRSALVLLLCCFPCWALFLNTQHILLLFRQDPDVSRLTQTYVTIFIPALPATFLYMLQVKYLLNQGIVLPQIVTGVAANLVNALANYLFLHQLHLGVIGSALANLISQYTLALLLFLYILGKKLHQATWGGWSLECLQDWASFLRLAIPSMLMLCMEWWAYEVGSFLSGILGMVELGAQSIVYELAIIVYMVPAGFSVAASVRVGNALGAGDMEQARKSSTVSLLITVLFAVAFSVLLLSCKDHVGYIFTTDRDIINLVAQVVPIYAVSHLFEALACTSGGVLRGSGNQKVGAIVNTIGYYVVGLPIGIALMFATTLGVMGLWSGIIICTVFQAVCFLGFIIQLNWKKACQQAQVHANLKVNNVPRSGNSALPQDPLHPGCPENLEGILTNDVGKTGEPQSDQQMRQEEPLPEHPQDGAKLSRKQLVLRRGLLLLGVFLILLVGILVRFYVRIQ

[5] = Metabolic stability in liver microsomes, monkey; format: in vitro ADME; details: read-out: intrinsic clearance in liver microsomes (scaled)
OATP1B1 = OATP1B1 (Homo sapiens, UniProt Q9Y6L6); test: Transporter inhibition, OATP1B1
Sequence of OATP1B1 (Q9Y6L6 whole entry): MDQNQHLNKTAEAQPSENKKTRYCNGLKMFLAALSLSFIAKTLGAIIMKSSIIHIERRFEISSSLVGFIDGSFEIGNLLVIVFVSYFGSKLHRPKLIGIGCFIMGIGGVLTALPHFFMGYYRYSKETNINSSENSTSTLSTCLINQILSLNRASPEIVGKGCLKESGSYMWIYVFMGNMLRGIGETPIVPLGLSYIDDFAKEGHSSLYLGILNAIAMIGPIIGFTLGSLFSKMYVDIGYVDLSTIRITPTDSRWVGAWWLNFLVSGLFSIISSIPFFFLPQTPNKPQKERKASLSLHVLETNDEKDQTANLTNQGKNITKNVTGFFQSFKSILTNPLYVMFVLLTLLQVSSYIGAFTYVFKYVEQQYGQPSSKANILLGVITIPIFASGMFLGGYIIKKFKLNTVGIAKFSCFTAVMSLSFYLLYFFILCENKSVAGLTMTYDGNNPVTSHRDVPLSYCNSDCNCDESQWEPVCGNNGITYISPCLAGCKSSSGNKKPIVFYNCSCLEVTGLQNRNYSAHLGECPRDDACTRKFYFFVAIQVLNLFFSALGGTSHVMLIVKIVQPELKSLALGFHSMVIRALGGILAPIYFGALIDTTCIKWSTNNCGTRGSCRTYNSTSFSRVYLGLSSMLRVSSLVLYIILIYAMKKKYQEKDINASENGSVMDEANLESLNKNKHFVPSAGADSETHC

[6] = Pivotal 4-week GLP oral toxicity study in rats; details: rat, 4 weeks; leading number = dose mg/kg/day
Description: as §3

Photostability = format: physicochemical; details: preclinical studies
Source text: In repeated-dose oral toxicity studies in rats and dogs of 6 and 9 months duration, respectively, no evidence of skin or ocular toxicity has been observed.

IL-15 signaling = test: Whole blood assay IL-15 pSTAT5 CD3+; format: cell-based
in vivo = details: dog; for AUC(0-inf): AUC0-∞
OAT1 = OAT1 (Homo sapiens, UniProt Q4U2R8); test: Transporter inhibition, OAT1; details: up to 30 μM
Sequence of OAT1 (Q4U2R8 whole entry): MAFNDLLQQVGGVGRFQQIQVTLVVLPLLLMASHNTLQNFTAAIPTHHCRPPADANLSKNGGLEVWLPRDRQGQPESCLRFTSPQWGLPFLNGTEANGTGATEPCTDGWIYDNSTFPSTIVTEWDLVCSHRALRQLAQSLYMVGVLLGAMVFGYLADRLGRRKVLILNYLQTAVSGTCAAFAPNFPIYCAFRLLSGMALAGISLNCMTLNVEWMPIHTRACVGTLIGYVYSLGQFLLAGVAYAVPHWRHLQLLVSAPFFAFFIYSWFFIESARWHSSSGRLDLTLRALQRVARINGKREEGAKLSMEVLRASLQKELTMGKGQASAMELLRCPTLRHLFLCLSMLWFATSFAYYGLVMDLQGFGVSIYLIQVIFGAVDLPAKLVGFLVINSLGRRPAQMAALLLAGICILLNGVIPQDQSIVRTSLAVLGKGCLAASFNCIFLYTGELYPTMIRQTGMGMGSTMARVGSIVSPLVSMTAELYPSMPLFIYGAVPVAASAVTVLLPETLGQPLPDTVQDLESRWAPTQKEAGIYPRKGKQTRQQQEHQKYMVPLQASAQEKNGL

[7] = system: adjuvant-induced arthritis (paw swelling, bone erosion); test: Adjuvant-induced arthritis (AIA) in Lewis rats; format: in vivo
Description: The inflammation appears in the contra-lateral (left) hind paw seven days after the initial immunization. […] Rats are lightly anesthetized with an inhalant anesthetic (isoflurane) and the contra-lateral (left) hind paw is dipped into the plethysmograph and the paw volume is recorded. The rats are scored every other day up to day 17 after immunization. […] Bone volume and density is determined for a 360 μm (200 slice) vertical section encompassing the tarsal section of the paw. […] Drug exposure is determined in the plasma using LC/MS.

[8] = 6-month (26 weeks) GLP chronic oral toxicity study in rats; format: in vivo, rat; details: for AUC(0-t) / Cmax: po, rat 20 mg/kg/day; for AUC(0-t): read-out: AUC0-24 at NOAEL; for Cmax: read-out: Cmax at NOAEL
Description: as §2
The 6-month chronic rat study was conducted at dose levels of 0, 5, 20, and 50 mg/kg/day by daily oral administration (gavage).

[9] = system: GMCSF-induced pSTAT5 (Jak2 signaling); test: Ex vivo stimulation assay GM-CSF pSTAT5, orally dosed human; details: 24 mg but not 12 mg oral, 1 hour post dose
[10] = Human PK, single ascending dose Study M13-401; format: in vivo; details: for AUC(0-t) / AUC(0-inf): human, in vivo
[11] = Plasma protein binding, rat; format: in vitro ADME
[12] = both, beagle, po, 0.5 mg/kg/day

Q: Which results are given for `CC[C@@H]1CN(C(=O)NCC(F)(F)F)C[C@@H]1c1cnc2cnc3[nH]ccc3n12` [Compound 1, (3S,4R)-3-ethyl-4-(3H-imidazo[1,2-a]pyrrolo[2,3-e]pyrazin-8-yl)-N-(2,2,2-trifluoroethyl)pyrrolidine-1-carboxamide]?
A: percentage of parent remaining (CYP2D6): 73.4%; mRNA expression of CYP3A4 (CYP3A4): did not increase; metabolism in liver cytosol incubations ([1]; liver cytosol): No metabolism; turnover in hepatocytes ([1]; rat, dog, monkey, human hepatocytes): < 10%; percentage of parent remaining (all other CYPs): greater than 98.0%; Adverse Findings ([2]; both, 4 weeks): 100: Kidneys-cortical tubular; dose-limiting effects [2]: mortality; change in RBC counts compared to control means ([2]; 100 mg/kg/day): −13%; change in hematocrit compared to control means ([2]; 100 mg/kg/day): −14%; increase in mean phosphorus (up to, vs control mean) ([2]; 100 mg/kg/day): +10%; NOAEL at 4 weeks ([3]; both sexes, beagle, in vivo, dog, 4 weeks GLP, oral capsule): 1.5 mg/kg/day; AUC(0-t) ([3]; both, beagle, plasma, oral, dog 1.5 mg/kg/day, males and females combined, read-out: AUC0-24 at NOAEL): 1200 ng·h/mL; decreases in red cell mass (up to) ([3]; dog, 3 mg/kg/day): −23%; decreases in circulating lymphocytes compared with baseline ([3]; dog, 5 mg/kg/day): −20% to −37%; decreases in red cell mass (up to) ([3]; dog, 5 mg/kg/day): −32%; Adverse Findings ([3]; dog, 4 weeks GLP, leading number = dose mg/kg/day): ≧3: Popliteal lymph; NOAEL at 9 months [4]: 1.5 mg/kg/day; IC50 (MATE1): 11 µM; CLint scaled at 0.5 μM [5]: < 26.7 mL/min/kg; IC50 (OATP1B1): 48 µM; adverse events severe, serious, or fatal (Study M13-845): None; number of adverse events in combined treatment groups (Substudy 2, RA on MTX, 6, 12, 24 mg BID, all reported as not related): 7; subjects reporting treatment emergent AEs (6 out of 42) (healthy volunteers, as printed under Substudy 1): 14.3%; Adverse Findings [6]: ≧100: Mortality; photostability (Photostability): photoinstability; IC50 (IL-15 signaling; read-out: IL-15 (pSTAT5, CD3+)): 0.016 µM; IC50 (IL-15 signaling; whole blood, read-out: IC50 IL-15 pSTAT5 CD3+): 0.016 µM; AUC (in vivo; [12]): 359 ng·h/mL; AUC at 28 days (in vivo; [12]): 339 ng·h/mL; AUC (in vivo; both, beagle, po, 3 mg/kg/day): 2200 ng·h/mL; AUC at 28 days (in vivo; both, beagle, po, 3 mg/kg/day): 2140 ng·h/mL; Cmax (in vivo; both, beagle, po, 3 mg/kg/day): 617 ng/mL; AUC (in vivo; both, beagle, po, 5 mg/kg/day): 4430 ng·h/mL; AUC at 28 days (in vivo; both, beagle, po, 5 mg/kg/day): 4100 ng·h/mL; Cmax (in vivo; both, beagle, po, 5 mg/kg/day): 1240 ng/mL; Vd (in vivo; iv, 1 mg/kg): 2.6 L/kg; clearance (in vivo; iv, 1 mg/kg): 11 mL/min/kg; half-life (in vivo; iv, 1 mg/kg): 3.1 h; AUC(0-inf) (in vivo; iv, 1 mg/kg): 1610 ng·h/mL; half-life (in vivo; po, 1 mg/kg): 2.8 h; AUC(0-inf) (in vivo; po, 1 mg/kg): 1240 ng·h/mL; Cmax (in vivo; po, 1 mg/kg): 349 ng/mL; AUC(0-inf) (in vivo; po, 5 mg/kg): 5310 ng·h/mL; inhibition of OAT1 uptake (OAT1): No significant inhibition; protection of bone erosion (tarsal bone volume, micro CT) ([7]; 3 mg/kg bid): complete protection; efficacious exposure (AUC60), PK/PD modeling ([7]; AIA rats, about 60% inhibition of paw swelling): 85 ng·h/mL; AUC60 (60% inhibition of paw swelling), total AUC0-12 ([7]; oral bid, last day of study): 85 ± 20 ng·h/mL and 85 ng·h/mL; AUC60, fraction unbound AUC0-12 ([7]; oral bid, last day of study): 34 ± 7 ng·h/mL; Paw Swelling (exposure) ([7]; rat AIA): 62 ng·h/mL; inhibition of Paw Swelling reached at about the same level of reticulocyte inhibition ([7]; rat AIA vs reticulocyte deployment): about 80%; AUC(0-t) ([8]; female, in vivo, females): 6840 ng·h/mL; Cmax ([8]; female, in vivo, females): 2240 ng/mL; NOAEL at 6 months ([8]; in vivo, rat, 6 months (26 weeks) oral gavage): 20 mg/kg/day; AUC(0-t) ([8]; male, in vivo, males): 3830 ng·h/mL; Cmax ([8]; male, in vivo, males): 1110 ng/mL; Adverse Findings ([8]; rat, 26 weeks, 50 mg/kg/day): 50: Kidneys-tubular; inhibition of GMCSF-induced pSTAT5 [9]: partial inhibition; decrease in AUC in the presence of food ([10]; Substudy 2, 3 mg single dose): < 1%; AUC(0-t) ([10]; oral, 3 mg): 102 ng·h/mL; AUC(0-t) ([10]; oral, 6 mg): 159 ng·h/mL; AUC(0-t) ([10]; oral, 24 mg): 612 ng·h/mL; AUC(0-inf) ([10]; single oral 1 mg, mean ± SD): 30.1 ± 5.72 ng·h/mL; AUC(0-t) ([10]; single oral 1 mg, mean ± SD): 29.8 ± 5.78 ng·h/mL; AUC(0-t) ([10]; single oral 3 mg, mean ± SD): 102 ± 27.5 ng·h/mL; AUC(0-t) ([10]; single oral 6 mg, mean ± SD): 159 ± 37.5 ng·h/mL; AUC(0-t) ([10]; single oral 12 mg, mean ± SD): 329 ± 48.9 ng·h/mL; AUC(0-t) ([10]; single oral 24 mg, mean ± SD): 612 ± 78.6 ng·h/mL; AUC(0-t) ([10]; single oral 36 mg, mean ± SD): 909 ± 201 ng·h/mL; AUC(0-inf) ([10]; single oral 48 mg, mean ± SD): 1040 ± 174 ng·h/mL; AUC(0-t) ([10]; single oral 48 mg, mean ± SD): 1030 ± 174 ng·h/mL; fe, dose recovered unchanged in urine ([10]; single oral 1 mg, mean ± SD): 17.7 ± 9.58%; fe, dose recovered unchanged in urine ([10]; single oral 3 mg, mean ± SD): 15.6 ± 4.44%; fe, dose recovered unchanged in urine ([10]; single oral 6 mg, mean ± SD): 15.6 ± 3.49%; fe, dose recovered unchanged in urine ([10]; single oral 12 mg, mean ± SD): 19.9 ± 2.26%; fe, dose recovered unchanged in urine ([10]; single oral 24 mg, mean ± SD): 18.6 ± 3.08%; fe, dose recovered unchanged in urine ([10]; single oral 36 mg, mean ± SD): 20.8 ± 9.25%; fe, dose recovered unchanged in urine ([10]; single oral 48 mg, mean ± SD): 16.4 ± 5.48%; fraction unbound [11]: 0.36
